Data published in PubChem BioAssay AID192 (DTP/NCI, 2004).
Where “and” joins values, the source holds several entries; their conditions need not be identical. Identical values can stand only once. Inconclusive results and toxic doses are left out.

Tested on: BDF1 mice, B16 melanoma ip, median survival T/C
Assay: NCI In Vivo Anticancer Drug Screen. Data for tumor model B16 Melanoma (intraperitoneal) in B6D2F1 (BDF1) mice
Conditions: endpoint: median survival time, higher = longer survival
In short: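 Antitumor activity is assessed in mice bearing a transplanted tumor, with survival or tumor size compared against vehicle-dosed controls and expressed as T/C.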

[1] = dose: 6.25 mg/kg/injection, schedule: Q01DX009 (ip), vehicle: Klucel (hydroxypropylcellulose) (HPC)
[2] = dose: 12.5 mg/kg/injection, schedule: Q01DX009 (ip), vehicle: Klucel (hydroxypropylcellulose) (HPC)
[3] = dose: 25.0 mg/kg/injection, schedule: Q01DX009 (ip), vehicle: Klucel (hydroxypropylcellulose) (HPC)
[4] = dose: 50.0 mg/kg/injection, schedule: Q01DX009 (ip), vehicle: Klucel (hydroxypropylcellulose) (HPC)
[5] = dose: 100.0 mg/kg/injection, schedule: Q01DX009 (ip), vehicle: Klucel (hydroxypropylcellulose) (HPC)
[6] = dose: 200.0 mg/kg/injection, schedule: Q01DX009 (ip), vehicle: Klucel (hydroxypropylcellulose) (HPC)
[7] = dose: 400.0 mg/kg/injection, schedule: Q01DX009 (ip), vehicle: Klucel (hydroxypropylcellulose) (HPC)
[8] = dose: 100.0 mg/kg/injection, schedule: Q04DX003 (ip), vehicle: saline with Tween-80
[9] = dose: 200.0 mg/kg/injection, schedule: Q04DX003 (ip), vehicle: saline with Tween-80
[10] = dose: 100.0 mg/kg/injection, schedule: Q01DX009 (ip), vehicle: saline with Tween-80
[11] = dose: 200.0 mg/kg/injection, schedule: Q01DX009 (ip), vehicle: saline with Tween-80
[12] = dose: 6.25 mg/kg/injection, schedule: Q01DX009 (ip), vehicle: saline
[13] = dose: 50.0 mg/kg/injection, schedule: Q01DX009 (ip), vehicle: saline
[14] = dose: 50.0 mg/kg/injection, schedule: Q01DX009 (ip), vehicle: other
[15] = dose: 4.0 mg/kg/injection, schedule: Q01DX009 (ip), vehicle: saline
[16] = dose: 400.0 mg/kg/injection, schedule: Q01DX009 (ip), vehicle: saline with Tween-80
[17] = dose: 100.0 mg/kg/injection, schedule: Q04DX003 (ip), vehicle: Klucel (hydroxypropylcellulose) (HPC)

## O=c1oc(-c2ccc(Cl)cc2)nc2cc(Cl)ccc12
[1]
  T/C: 99 % of control
[2]
  T/C: 93 % of control
[3]
  T/C: 105 % of control and 106 % of control

## C1CCC2OCCOCCOC3CCCCC3OCCOCCOC2C1 (stereo not given)
dose: 3.12 mg/kg/injection, schedule: Q01DX009 (ip), vehicle: Klucel (hydroxypropylcellulose) (HPC)
  T/C: 91 % of control and 95 % of control
[1]
  T/C: 95 % of control and 107 % of control
[2]
  T/C: 106 % of control and 111 % of control
[3]
  T/C: 108 % of control and 121 % of control
[4]
  T/C: 98 % of control

## O=C1c2ccccc2C(=O)c2c1ccc(C(=O)O)c2-c1ccc2ccccc2c1
[5]
  T/C: 103 % of control
[6]
  T/C: 99 % of control
[7]
  T/C: 96 % of control

## Cc1nc2c(=O)n(C)c(=O)n(C)c2n1C
dose: 50.0 mg/kg/injection, schedule: Q04DX003 (ip), vehicle: saline with Tween-80
  T/C: 105 % of control
[8]
  T/C: 105 % of control
[9]
  T/C: 105 % of control

## O=C(O)c1ccccc1C(=O)OC1CC2C=CC1C21CC1 (stereo not given)
[2]
  T/C: 96 % of control
[3]
  T/C: 96 % of control
[4]
  T/C: 93 % of control

## COc1cc2c(cc1OC)C13CCN4CC5=CCOC6CC(=O)N2C1C6C5CC43 (stereo not given) (tested in a mixture with another compound)
[3]
  T/C: 103 % of control
[4]
  T/C: 91 % of control

## O=C(O)C(Br)C(Br)c1ccccc1 (stereo not given)
[8]
  T/C: 86 % of control
[9]
  T/C: 93 % of control
dose: 400.0 mg/kg/injection, schedule: Q04DX003 (ip), vehicle: saline with Tween-80
  T/C: 86 % of control

## O=C(O)C1Cc2c([nH]c3ccccc23)C(CCCCO)N1 (stereo not given)
[1]
  T/C: 99 % of control
[2]
  T/C: 101 % of control
[3]
  T/C: 107 % of control

## CCN(N=Nc1ccc(C)cc1)N=Nc1ccc(C)cc1
[5]
  T/C: 90 % of control
[6]
  T/C: 96 % of control
[7]
  T/C: 86 % of control

## C[CH2][Pb]([CH2]C)([CH2]C)[O]C(=O)c1ccc(N)cc1
dose: 0.75 mg/kg/injection, schedule: Q01DX009 (ip), vehicle: Klucel (hydroxypropylcellulose) (HPC)
  T/C: 111 % of control
dose: 1.5 mg/kg/injection, schedule: Q01DX009 (ip), vehicle: Klucel (hydroxypropylcellulose) (HPC)
  T/C: 111 % of control
dose: 3.0 mg/kg/injection, schedule: Q01DX009 (ip), vehicle: Klucel (hydroxypropylcellulose) (HPC)
  T/C: 108 % of control
dose: 6.0 mg/kg/injection, schedule: Q01DX009 (ip), vehicle: Klucel (hydroxypropylcellulose) (HPC)
  T/C: 111 % of control
dose: 12.0 mg/kg/injection, schedule: Q01DX009 (ip), vehicle: Klucel (hydroxypropylcellulose) (HPC)
  T/C: 105 % of control

## Cc1ccc(Cl)cc1NS(=O)(=O)c1cccc([N+](=O)[O-])c1
dose: 50.0 mg/kg/injection, schedule: Q01DX009 (ip), vehicle: saline with Tween-80
  T/C: 111 % of control
[10]
  T/C: 107 % of control
[11]
  T/C: 100 % of control

## Cc1ccc(S(=O)(=O)OCCN(CCOS(=O)(=O)c2ccc(C)cc2)c2ccc(F)cc2)cc1
dose: 0.17 mg/kg/injection, schedule: Q01DX009 (ip), vehicle: saline
  T/C: 115 % of control
dose: 0.35 mg/kg/injection, schedule: Q01DX009 (ip), vehicle: saline
  T/C: 108 % of control
dose: 0.7 mg/kg/injection, schedule: Q01DX009 (ip), vehicle: saline
  T/C: 106 % of control
dose: 1.5 mg/kg/injection, schedule: Q01DX009 (ip), vehicle: saline
  T/C: 115 % of control
dose: 3.13 mg/kg/injection, schedule: Q01DX009 (ip), vehicle: saline
  T/C: 119 % of control
[12]
  T/C: 117 % of control
dose: 12.5 mg/kg/injection, schedule: Q01DX009 (ip), vehicle: saline + alcohol
  T/C: 88 % of control
dose: 50.0 mg/kg/injection, schedule: Q01DX009 (ip), vehicle: saline + alcohol
  T/C: 110 % of control
[13]
  T/C: 154 % of control
dose: 100.0 mg/kg/injection, schedule: Q01DX009 (ip), vehicle: saline + alcohol
  T/C: 104 % of control

## CCOc1c(Br)cc(Br)cc1C=C(C#N)C#N
dose: 12.5 mg/kg/injection, schedule: Q01DX009 (ip), vehicle: other
  T/C: 103 % of control
dose: 25.0 mg/kg/injection, schedule: Q01DX009 (ip), vehicle: other
  T/C: 98 % of control
[14]
  T/C: 109 % of control

## [O-][n+]1c(CN2CCCCC2)nc2cccc3c2c1-c1ccccc1-3
[4]
  T/C: 102 % of control
[5]
  T/C: 119 % of control
[6]
  T/C: 113 % of control

## CC(=O)OCC12CCC(C)=CC1OC1C(=O)CC2(C)C12CO2 (stereo not given)
dose: 0.5 mg/kg/injection, schedule: Q01DX009 (ip), vehicle: saline
  T/C: 101 % of control
dose: 1.0 mg/kg/injection, schedule: Q01DX009 (ip), vehicle: saline
  T/C: 110 % of control
dose: 2.0 mg/kg/injection, schedule: Q01DX009 (ip), vehicle: saline
  T/C: 113 % of control
[15]
  T/C: 98 % of control

## CCOC(=O)C1C(=O)CC(=O)C(C(=O)OCC)C1c1ccc(O)cc1 (stereo not given)
[5]
  T/C: 100 % of control
[6]
  T/C: 93 % of control
[7]
  T/C: 103 % of control

## CCCCCCCCCCCC[N+](C)(C)CCCCCCCCCCCC
[15]
  T/C: 87 % of control
dose: 8.0 mg/kg/injection, schedule: Q01DX009 (ip), vehicle: saline
  T/C: 88 % of control and 94 % of control

## COc1cccc(/C=C/C(=O)O)c1OC
[14]
  T/C: 101 % of control
dose: 100.0 mg/kg/injection, schedule: Q01DX009 (ip), vehicle: other
  T/C: 107 % of control
dose: 200.0 mg/kg/injection, schedule: Q01DX009 (ip), vehicle: other
  T/C: 98 % of control
dose: 400.0 mg/kg/injection, schedule: Q01DX009 (ip), vehicle: other
  T/C: 93 % of control

## CC(C)C1OC(=O)/C=C/C=C/C=C/C=C/C=C/CC(O)C(C)C(O)CC(O)CC(O)CC(O)CC(O)CC(O)CC(O)/C=C/C1C (stereo not given)
[12]
  T/C: 98 % of control

## NC(CC(=O)NC(=O)OCc1ccccc1)C(=O)O (stereo not given)
[10]
  T/C: 100 % of control
[11]
  T/C: 105 % of control
[16]
  T/C: 110 % of control

## CC1(C)CC(C)(c2ccc(O)cc2)c2ccccc2O1 (stereo not given)
[10]
  T/C: 100 % of control
[11]
  T/C: 86 % of control
[16]
  T/C: 86 % of control

## Nc1ccc(N2CCNCC2)cc1
[13]
  T/C: 108 % of control
dose: 100.0 mg/kg/injection, schedule: Q01DX009 (ip), vehicle: saline
  T/C: 97 % of control
dose: 200.0 mg/kg/injection, schedule: Q01DX009 (ip), vehicle: saline
  T/C: 100 % of control

## Cc1ccc(S(=O)(=O)N/N=C\c2cc(Cl)ccc2O)cc1
[5]
  T/C: 100 % of control
[6]
  T/C: 105 % of control
[7]
  T/C: 102 % of control

## C/C=C\C(C)=C/C(C)C(=O)CC(O)CC1CC(=O)NC(=O)C1 (stereo not given)
dose: 3.12 mg/kg/injection, schedule: Q01DX009 (ip), vehicle: DMSO
  T/C: 95 % of control
dose: 6.25 mg/kg/injection, schedule: Q01DX009 (ip), vehicle: DMSO
  T/C: 119 % of control
dose: 12.5 mg/kg/injection, schedule: Q01DX009 (ip), vehicle: DMSO
  T/C: 103 % of control
dose: 25.0 mg/kg/injection, schedule: Q01DX009 (ip), vehicle: DMSO
  T/C: 96 % of control

## CCC[CH2][Sn]1([CH2]CCC)[S]CC[N]1S(=O)(=O)c1ccc(C)cc1
dose: 6.0 mg/kg/injection, schedule: Q01DX009 (ip), vehicle: saline with Tween-80
  T/C: 95 % of control
dose: 12.5 mg/kg/injection, schedule: Q01DX009 (ip), vehicle: saline with Tween-80
  T/C: 108 % of control

## Cc1c(N)nc(C(CC(N)=O)NCC(N)C(N)=O)nc1C(=O)NC(C(=O)NC(C)C(O)CC(=O)NC(C(=O)NC(OC1OC(C)C(N)C(O)C1O)C(O)c1nc(-c2nc(C(=O)NCCCC(N)CC(=O)NCCCNCCCCN)cs2)cs1)C(C)O)C(OC1OC(CO)C(O)C(O)C1OC1OC(CO)C(O)C(OC(N)=O)C1O)c1cnc[nH]1 (stereo not given)
dose: 0.2 mg/kg/injection, schedule: Q01DX009 (ip), vehicle: saline
  T/C: 113 % of control
dose: 0.8 mg/kg/injection, schedule: Q01DX009 (ip), vehicle: saline
  T/C: 90 % of control
dose: 1.6 mg/kg/injection, schedule: Q01DX009 (ip), vehicle: saline
  T/C: 101 % of control

## COc1ccc(C(C#N)N2CCOCC2)cc1 (stereo not given)
[4]
  T/C: 89 % of control
dose: 50.0 mg/kg/injection, schedule: Q04DX003 (ip), vehicle: Klucel (hydroxypropylcellulose) (HPC)
  T/C: 95 % of control
[17]
  T/C: 97 % of control

## CCC/C(=C\C(=O)O)CC
[5]
  T/C: 108 % of control
[17]
  T/C: 95 % of control
[6]
  T/C: 100 % of control
dose: 200.0 mg/kg/injection, schedule: Q04DX003 (ip), vehicle: Klucel (hydroxypropylcellulose) (HPC)
  T/C: 95 % of control
[7]
  T/C: 97 % of control
